In patent US20190117653A1, “SYSTEMS AND METHODS FOR TREATING BACTERIAL INFECTION” (priority 2016, published 2019):

What was measured:
L-type calcium channel = L-type calcium channel (Homo sapiens, UniProt Q13936); assay: L-type calcium channel inhibition; format: cell-based
[1] = PK of IV iclaprim in moderate hepatic impairment; format: in vivo, human; details: moderate hepatic impairment (Child-Pugh grade B)
Description: For example, the PK profile of 0.8 mg/kg iclaprim administered by IV was investigated in 8 subjects with mild to moderate obesity (body mass index or “BMI” 30-40) and in 8 subjects with severe obesity (BMI>40). […] Linear regression analysis indicated a strong linear relationship between AUC (and Cmax) and BMI. Thus it was clear that the body composition of the subject affected the pharmacokinetics of IV administered iclaprim, with a greater percentage of body fat causing an increase in AUC and Cmax. […] Thus there is a risk of overdosing subjects with moderate hepatic impairment, which can be mitigated by reducing the IV iclaprim dose by about 50%.

[2] = 13-week toxicology study in the marmoset, AUC at NOAEL; format: in vivo; details: marmoset females
[3] = test system: methicillin-resistant Staphylococcus aureus (MRSA) isolates nonsusceptible to daptomycin, linezolid or vancomycin; assay: broth microdilution susceptibility of MRSA nonsusceptible to daptomycin, linezolid or vancomycin; format: cell-based
Description: Antibacterial susceptibility testing was conducted on a range of MRSA strains and isolates with varying susceptibilities to several recognized antistaphylococcal antibiotics. Susceptibility testing was performed by broth microdilution in accordance with the Clinical and Laboratory and Standards Institute (CLSI) guidelines. Minimum inhibitory concentrations (MICs) were based on CLSI criteria.

S. aureus strain AH1252 = assay: neutropenic rat lung infection model; format: in vivo, Staphylococcus aureus
Description: S. aureus strain AH1252, a thymidine knockout of the MRSA wild type AW6 strain, was utilized for this study. The bacterial strain was diluted in a 2% alginate buffer, which was added dropwise in a ratio of 1:5 into […] to form alginate beads. The alginate beads reduce the efficacy of bacterial clearance similar to that seen in the cystic fibrosis population. A 5.25×10^4 bacterial inoculum was administered to groups of 9 rats, intratracheally, with prepared alginate bacteria suspensions, under isoflurane anesthesia. […] Twelve hours after the last treatment, rats were euthanized and lungs collected for CFU determination.

QTc interval = details: human, in vivo
Description: A second single-dose ECG study was conducted on healthy human volunteers using weight-based doses of 0.4 mg/kg and 0.8 mg/kg iclaprim base infused over 30 minutes and 1.6 mg/kg infused over 60 minutes.

Sequence of L-type calcium channel (Q13936 whole entry): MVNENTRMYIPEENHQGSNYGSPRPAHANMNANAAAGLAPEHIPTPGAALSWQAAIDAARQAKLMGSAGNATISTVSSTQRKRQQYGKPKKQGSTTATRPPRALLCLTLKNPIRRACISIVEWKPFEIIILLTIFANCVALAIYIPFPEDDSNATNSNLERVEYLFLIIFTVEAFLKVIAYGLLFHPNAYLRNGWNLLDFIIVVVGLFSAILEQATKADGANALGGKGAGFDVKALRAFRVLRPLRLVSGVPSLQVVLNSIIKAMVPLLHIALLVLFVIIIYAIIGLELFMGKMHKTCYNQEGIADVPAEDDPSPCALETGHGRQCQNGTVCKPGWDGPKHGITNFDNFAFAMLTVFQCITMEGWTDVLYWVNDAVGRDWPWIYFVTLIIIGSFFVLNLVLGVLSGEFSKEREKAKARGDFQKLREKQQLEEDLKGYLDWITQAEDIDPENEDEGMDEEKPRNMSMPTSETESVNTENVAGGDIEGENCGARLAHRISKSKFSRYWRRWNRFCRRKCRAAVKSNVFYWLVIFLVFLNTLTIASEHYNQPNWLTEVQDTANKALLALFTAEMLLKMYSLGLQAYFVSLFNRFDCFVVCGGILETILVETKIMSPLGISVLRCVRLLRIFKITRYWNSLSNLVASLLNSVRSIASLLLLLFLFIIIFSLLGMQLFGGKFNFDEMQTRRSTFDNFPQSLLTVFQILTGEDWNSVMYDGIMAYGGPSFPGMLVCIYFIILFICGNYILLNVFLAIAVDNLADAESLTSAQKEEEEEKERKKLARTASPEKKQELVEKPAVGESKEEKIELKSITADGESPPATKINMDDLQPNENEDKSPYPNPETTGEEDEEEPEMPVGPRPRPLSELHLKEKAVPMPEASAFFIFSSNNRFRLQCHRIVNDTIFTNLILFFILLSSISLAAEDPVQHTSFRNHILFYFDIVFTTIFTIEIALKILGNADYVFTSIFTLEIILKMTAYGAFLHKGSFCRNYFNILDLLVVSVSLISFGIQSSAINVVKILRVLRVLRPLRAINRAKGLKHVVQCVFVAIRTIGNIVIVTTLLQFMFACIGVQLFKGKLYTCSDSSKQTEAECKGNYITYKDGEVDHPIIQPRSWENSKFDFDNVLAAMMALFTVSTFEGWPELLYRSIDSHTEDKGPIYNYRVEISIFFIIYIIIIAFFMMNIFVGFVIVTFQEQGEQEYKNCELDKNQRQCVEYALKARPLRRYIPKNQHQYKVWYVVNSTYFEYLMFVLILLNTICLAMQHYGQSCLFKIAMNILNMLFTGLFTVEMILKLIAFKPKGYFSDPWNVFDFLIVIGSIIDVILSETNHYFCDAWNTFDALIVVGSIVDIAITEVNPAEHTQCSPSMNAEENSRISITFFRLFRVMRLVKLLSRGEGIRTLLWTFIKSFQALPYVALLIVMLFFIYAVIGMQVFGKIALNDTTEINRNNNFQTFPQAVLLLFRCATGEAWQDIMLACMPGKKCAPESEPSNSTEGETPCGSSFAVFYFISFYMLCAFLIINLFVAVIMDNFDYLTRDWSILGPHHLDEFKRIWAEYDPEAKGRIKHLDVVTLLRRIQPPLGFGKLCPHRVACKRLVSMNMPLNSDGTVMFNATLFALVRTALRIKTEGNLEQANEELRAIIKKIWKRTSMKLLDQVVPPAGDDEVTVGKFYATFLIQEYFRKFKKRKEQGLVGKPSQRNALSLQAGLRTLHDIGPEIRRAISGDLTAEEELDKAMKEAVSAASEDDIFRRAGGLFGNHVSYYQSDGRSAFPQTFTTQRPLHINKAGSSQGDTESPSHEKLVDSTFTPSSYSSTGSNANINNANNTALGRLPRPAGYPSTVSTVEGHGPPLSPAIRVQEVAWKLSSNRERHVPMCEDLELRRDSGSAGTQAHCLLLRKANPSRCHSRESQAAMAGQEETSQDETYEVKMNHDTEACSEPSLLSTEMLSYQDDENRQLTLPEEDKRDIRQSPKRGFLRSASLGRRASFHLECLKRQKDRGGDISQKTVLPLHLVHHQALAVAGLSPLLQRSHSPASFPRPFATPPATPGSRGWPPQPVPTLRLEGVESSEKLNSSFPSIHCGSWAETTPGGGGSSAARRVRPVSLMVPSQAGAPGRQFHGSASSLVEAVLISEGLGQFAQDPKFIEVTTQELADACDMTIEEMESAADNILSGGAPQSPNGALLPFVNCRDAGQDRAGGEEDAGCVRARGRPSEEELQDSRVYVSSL

**Q.** With COc1cc(Cc2cnc(N)nc2N)c2c(c1OC)OC(C1CC1)C=C2 (racemic) [Iclaprim] as the compound, how does the IC50 (L-type calcium channel) read?
**A.** 46 µM

**Q.** What about the “increase in AUC” value [1] of the same compound?
**A.** 2.5 fold

**Q.** What about the “increase in Cmax” value [1] of the same compound?
**A.** 1.4 fold

**Q.** What about the “AUC achieved at the NOAEL” value [2] of the same compound?
**A.** 26,600 hr×ng/mL

**Q.** And the “isolates with MIC≤1 μg/ml” value ([3]; MRSA nonsusceptible to daptomycin (5 of 7))?
**A.** 71.4%

**Q.** What about the “isolates with MIC≤1 μg/ml” value ([3]; MRSA nonsusceptible to linezolid (25 of 25)) of the same compound?
**A.** 100%

**Q.** And the “isolates with MIC≤1 μg/ml” value ([3]; MRSA nonsusceptible to vancomycin (18 of 27))?
**A.** 66.7%

**Q.** What about the “72 hour lungs log10CFU/Lung (CFU/gram of lung)” value (S. aureus strain AH1252; 80 mg/kg SC/BID) of the same compound?
**A.** 3.34

**Q.** And the “Change in CFUs from 2 hr. infection controls” value (S. aureus strain AH1252; 80 mg/kg SC/BID)?
**A.** 0.22 log 10 CFU

**Q.** And the “Change in CFUs from 72 hr. infection controls” value (S. aureus strain AH1252; 80 mg/kg SC/BID)?
**A.** −5.34 log 10 CFU

**Q.** What about the “Survival >60 hrs” value (S. aureus strain AH1252; 80 mg/kg SC/BID (160 mg/kg/day) 3 days) of the same compound?
**A.** 9/9

**Q.** What about the “CFU reduction from the 72 hour infection controls” value (S. aureus strain AH1252; iclaprim 80 mg/kg SC/BID) of the same compound?
**A.** 5.34 log 10 CFU

**Q.** What about the “post-infusion QTcF prolongation from baseline (no subject above)” value (QTc interval) of the same compound?
**A.** ≤ 60 ms
